From the NIST ThermoML archive (doi:10.1021/acs.jced.8b00438)

Experiments:
[1] = 100 kPa, Liquid; for viscosity: Falling or rolling sphere viscometry; for mass density: Vibrating tube method
[2] = xn = mol fraction of the nth substance listed; settings: 100 kPa, Liquid; for viscosity: Falling or rolling sphere viscometry; for mass density: Vibrating tube method

C1CCC(C2CCCCC2)CC1 [1,1'-bicyclohexyl]
[1]
Settings | mass density [kg/m3] | viscosity [mPa·s]
293.15 K | 886.05 | 4.003
298.15 K | 882.44 | 3.53
303.15 K | 878.84 | 3.137
308.15 K | 875.25 | 2.81
313.15 K | 871.66 | 2.532
318.15 K | 868.08 | 2.296
323.15 K | 864.5 | 2.092
328.15 K | 860.93 | 1.915
333.15 K | 857.35 | 1.762

CCCCO [butan-1-ol]
[1]
Settings | mass density [kg/m3] | viscosity [mPa·s]
293.15 K | 809.5 | 2.941
298.15 K | 805.7 | 2.58
303.15 K | 801.87 | 2.274
308.15 K | 798 | 2.012
313.15 K | 794.1 | 1.787
318.15 K | 790.15 | 1.593
323.15 K | 786.16 | 1.426
328.15 K | 782.12 | 1.28
333.15 K | 778.01 | 1.152

CCCCO [butan-1-ol] + C1CCC(C2CCCCC2)CC1
[2], x2 = 0
Settings | mass density [kg/m3] | viscosity [mPa·s]
293.15 K | 809.5 | 2.941
298.15 K | 805.7 | 2.58
303.15 K | 801.87 | 2.274
308.15 K | 798 | 2.012
313.15 K | 794.1 | 1.787
318.15 K | 790.15 | 1.593
323.15 K | 786.16 | 1.426
328.15 K | 782.12 | 1.28
333.15 K | 778.01 | 1.152

CCCCO [butan-1-ol] + CCCCCCCCCCCC
[2], x2 = 0
Settings | mass density [kg/m3] | viscosity [mPa·s]
293.15 K | 809.5 | 2.941
298.15 K | 805.7 | 2.58
303.15 K | 801.87 | 2.274
308.15 K | 798 | 2.012
313.15 K | 794.1 | 1.787
318.15 K | 790.15 | 1.593
323.15 K | 786.16 | 1.426
328.15 K | 782.12 | 1.28
333.15 K | 778.01 | 1.152

CCCCCCCCCCCC [dodecane]
[1]
Settings | mass density [kg/m3] | viscosity [mPa·s]
293.15 K | 748.83 | 1.491
298.15 K | 745.22 | 1.366
303.15 K | 741.59 | 1.257
308.15 K | 737.95 | 1.154
313.15 K | 734.31 | 1.076
318.15 K | 730.66 | 1.003
323.15 K | 727 | 0.936
328.15 K | 723.33 | 0.877
333.15 K | 719.65 | 0.823

CCCCCCCCCCCC [dodecane] + C1CCC(C2CCCCC2)CC1
[2], x1 = 1
Settings | mass density [kg/m3] | viscosity [mPa·s]
293.15 K | 748.83 | 1.491
298.15 K | 745.22 | 1.366
303.15 K | 741.59 | 1.257
308.15 K | 737.95 | 1.154
313.15 K | 734.31 | 1.076
318.15 K | 730.66 | 1.003
323.15 K | 727 | 0.936
328.15 K | 723.33 | 0.877
333.15 K | 719.65 | 0.823
